Values quoted from earlier work as cited in patent US8889663B2, “Formulation for oral transmucosal administration of lipid-lowering drugs” (priority 2008, dated 2014).

What was measured:
[1] = in vivo
[2] = oral, 20 mg or 40 mg dose

volume of organ and tissue space in which the active principle is distributed [1] | average known residual bioavailability [2] | SMILES
exceeding 600 L |  | CC(C)c1c(C(=O)Nc2ccccc2)c(-c2ccccc2)c(-c2ccc(F)cc2)n1CC[C@@H](O)C[C@@H](O)CC(=O)O [atorvastatin]
 | around 17 % of the administered dose | CC[C@H](C)C(=O)O[C@H]1C[C@H](O)C=C2C=C[C@H](C)[C@H](CC[C@@H](O)C[C@@H](O)CC(=O)O)[C@H]21 [provastatin]
